US9993516B2, “Treatment of left ventricular non-compaction and dilated cardiomyopathy by inhibiting melanocortin receptor four” (THE BRIGHAM AND WOMEN'S HOSPITAL, INC., priority 2013, dated 2018)

Key:
[1] = system: PRDM16 morphant and truncation mutant hearts; test: Cardiomyocyte proliferation (PCNA staining) in isolated hearts of PRDM16 morphant/mutant zebrafish; assay type: in vivo; settings: hearts at 48 hpf
Protocol: For proliferation detection hearts from 48 hpf old zebrafish embryos were isolated and fixed in Prefer fixative (Anatech). The fixed hearts were stained with the primary antibodies rabbit anti-PCNA 1:200 (Abcam) and mouse anti-MF20 1:100 (DSHB), and the secondary antibodies donkey or goat anti-rabbit or mouse Alexa 488 or 546 conjugated (Invitrogen) 1:1,000. Hearts were mounted with ProLong Antifade reagent with DAPI mounting medium on a slide. Confocal images were analyzed using IMAGEJ.

[2] = system: PRDM16 morphant knockdown embryos and truncation mutant (p.K702X) transgenics; test: Cardiac function (cardiac output) by video microscopy in PRDM16 morphant and truncation mutant zebrafish embryos, rescue experiments; assay type: in vivo; settings: for rescue of reduced cardiac output (contractile impairment): injected into yolk sac at one-cell stage, MCL0020, HS014, SU9119 1 μM, JKC363 2 μM, HS024 200 nM, THIQ 1 μM and 500 μM
Protocol: Morpholinos directed against the translation start codon were 5'-[…] NO: 7) for prdm16 (Gene Tools (Philomath, Oreg.)) and were injected at the one cell stage. Concentrations of 0.2 mM were used. For cardiac-specific overexpression experiments the human PRDM16 truncation mutation ([…]) and the human PRDM16 wildtype were cloned downstream of the cmlc2 promoter into the Tol2kit expression system using Gateway technology (Invitrogen). PRDM16 constructs (15 ng/μl) were co-injected with 10 ng/μl capped Tol2 transposase mRNA into one-cell-stage zebrafish embryos.

PRDM16 mutants = test: Apoptosis (TUNEL assay) in isolated hearts of PRDM16 mutant zebrafish; assay type: in vivo; settings: hearts at 48 hpf
Protocol: For detection of apoptosis hearts from 48 hpf old zebrafish embryos were isolated and fixed in 4% PFA/PBS for 30 min and washed twice in PBS-T for 30 min. TUNEL assay was performed by using the in situ cell detection kit from Roche. Hearts were mounted with ProLong Antifade reagent with DAPI on a slide and confocal images were analyzed using IMAGEJ.

[3] = system: PRDM16 morphant and mutant hearts; test: Intercellular coupling / conduction velocity by optical mapping of isolated zebrafish embryo hearts; assay type: in vivo
Protocol: Intercellular coupling parameters in zebrafish embryo hearts were measured using previously reported techniques. Briefly, hearts were isolated from zebrafish embryos, stained with the transmembrane-potential-sensitive dye di-8-ANEPPS (Invitrogen) and placed into a perfusion chamber that was mounted onto the stage of an inverted microscope. Excitation light from a high-intensity Hg arc lamp was transmitted through a 525/50-nm bandpass filter and reflected onto the preparation via a 565-nm dichroic mirror. Fluorescence emission was filtered by a 685/80-nm bandpass filter and recorded at a rate of 2000 s^-1 by a high-speed CCD camera (CardioCCD-[…]). Single-pixel action potentials were extracted from the fluorescence data and conduction velocities were estimated using an established algorithm. Experiments were repeated at least 2 times with 5 animals. Immunofluorescence, Detection of Apotosis and Mitochondrial Assessment

[4] = system: PRDM16 mutant model as well as wildtype fish; test: Tail necrosis on norepinephrine incubation of zebrafish embryos; assay type: in vivo; settings: high doses of norepinephrine
Protocol: (§1) Working solutions of 10 nM, 100 nM or 1 μM were diluted in 20 ml E3 water and zebrafish embryos were incubated directly after birth. Cardiac function was assessed at 48 hpf as described below.

[5] = system: healthy wildtype zebrafish embryos
Protocol: MC4 receptor antagonists and agonists were dissolved in 100% DMSO to a stock concentration of 1 mM. Working solutions were diluted in nuclease free water. The concentrations for MCL0020, HS014, SU9119 were 1 μM, for JKC363 2 μM, HS024 200 nM and for the MC4 receptor agonist THIQ 1 μM and 500 μM.
as §1
For analysis of cardiac function embryos were laterally positioned and allowed to acclimate at 24° C. Video microscopy was performed on an Axioplan (Zeiss) upright microscope with a FastCam-PCI high-Speed digital camera (Photron) on top. 1088 frames were digitally captured at identical frame rates (250 frames per second) and magnification (5×). Sequential images were analyzed for heart rate and cardiac output using IMAGEJ and Excel. Experiments were repeated at least 3 times on each occasion using 10 animals.

Compound	decreased cardiomyocyte proliferation (percentage of PCNA positive cells) [1]	rescue of reduced cardiac output (contractile impairment) [2]	increased apoptosis (PRDM16 mutants)	disrupted coupling of cells (reduction in impulse propagation velocities) [3]	necrosis of the tail [4]	rescue of contractile dysfunction ([2]; PRDM16 mutant model, norepinephrine doses of 10 nM up to 1 μM, incubation in E3 water, 48 hpf)	cardiac output in wildtype embryos ([5]; THIQ 1 μM and 500 μM)	heart rate ([5]; THIQ, FIGS. 8A and 8B, fish group not given)
HS024	prevented or reduced	efficiently rescued	restored	rescued				
NC[C@H](O)c1ccc(O)c(O)c1 [norepinephrine]					necrosis of the tail	able to rescue		
O=C(N[C@H](Cc1ccc(Cl)cc1)C(=O)N1CCC(Cn2cncn2)(C2CCCCC2)CC1)[C@H]1Cc2ccccc2CN1 [THIQ]		not able to rescue					decreases cardiac output	not altered
